Reference: patent US11040954B1, “CXCR3 receptor agonists” (RECEPTOS LLC, priority 2016, dated 2021)
pEC50: −log10 of the molar value. Where two headings read alike, the source gives them in different places.

Key:
[1] = Mouse pharmacokinetics after oral gavage, plasma drug concentration by LC-MS/MS (C57BL/6); type: in vivo, C57bl/6 mice; conditions: for Cmax / AUC(0-t): mouse, plasma; for AUC(0-t): read-out: AUC0-24
Description: Compounds were formulated in 5% DMSO/5% Tween20 in H2O, sonicated, vortexed, and put on stir plate overnight at a dose volume of 10 mL/kg. Balb/C (Jackson laboratories) or C57bl/6 (Taconic Biosciences) mice (8-9 weeks old) were acclimated to the colony for 3 days prior to dosing. Water and food were provided ab libitum. Compounds were administered by oral gavage. Groups of six animals received 3 to 4 bleeds per day with one terminal bleed. The time points were 30 min, 1 h, 2 h, 4 h, 6 h, 8 h, 24 h. Plasma was collected via centrifugation and analyzed for drug concentrations.
Preparation of Study Samples and Standards for Analysis by LC-MS/MS
50 μl of plasma was aliquoted into a 96 well deep-well polypropylene plate (2 mL) to which 5 μL of DMSO was added. For standards, 5 μl of test compound in DMSO at […] the standard concentration was added to 50 μl of blank matrix in a 96 well deep-well polypropylene plate. For example, for a 300 nM standard, the 10× DMSO concentration was 3 μM. Study samples that require dilution are diluted with the appropriate blank matrix. For example, for a 10× dilution, 5 μL of study sample is added to 45 μl of blank matrix. Protein was precipitated from study samples and standards with the addition of 150 μl of acetonitrile. After a clean plate map was placed firmly over the top of the 96-well plate, a bench top shaker was used for 1 min to ensure complete precipitation of protein. The precipitated protein was pelleted by centrifuging for 3,000 rpm for 10 min at 20° C. and then the clear supernatant was transferred to a clean 96-well plate and spun again under the same conditions in order to pellet any solid material that may have been transferred.
Analysis of Study Samples and Standards with LCMS with MRM Detection
An Agilent 1200 HPLC with binary pump and a Leap CTC with fast wash autosampler were used to introduce samples to the mass spectrometer.
The column used was a Phenomenex Luna C8 30×2 mm 5 μm with a security guard. Mass detection was performed by an Applied Biosystems 4000 Qtrap in MRM mode and ionization was achieved by positive electrospray with a source temperature of 500° C. The ion transitions, […] potential and collision energies were dependent on the specific analyte.
Prepared samples were usually analyzed in reverse chronological order with bracketing standard curves. Typically at least 6 standards were used for quantification with a percent accuracy of +/−15% for all standards except at the LLOQ where a percent accuracy of +/−20% was allowed. The concentration time profile was fit using a one compartment model for the applicable mode of dosing using Phoenix WinNonLin 6.4.

CXCR3 = target: T1, CXCR3 (Homo sapiens, UniProt P49682); assay: CXCR3 cAMP agonist assay (cAMP Hunter CHOK1 CXCR3 Gi cell line, forskolin-stimulated, HitHunter cAMP detection); type: cell-based; conditions: cAMP Hunter CHOK1 CXCR3 Gi cells, 20 μM forskolin, 30 minutes; read-out: Activity (CXCR3 cAMP agonist assay compound EC50)
T1 construct: host or cells: CHO-K1 (cAMP Hunter CHOK1 CXCR3 Gi cell line)
T1 sequence (P49682 1-368): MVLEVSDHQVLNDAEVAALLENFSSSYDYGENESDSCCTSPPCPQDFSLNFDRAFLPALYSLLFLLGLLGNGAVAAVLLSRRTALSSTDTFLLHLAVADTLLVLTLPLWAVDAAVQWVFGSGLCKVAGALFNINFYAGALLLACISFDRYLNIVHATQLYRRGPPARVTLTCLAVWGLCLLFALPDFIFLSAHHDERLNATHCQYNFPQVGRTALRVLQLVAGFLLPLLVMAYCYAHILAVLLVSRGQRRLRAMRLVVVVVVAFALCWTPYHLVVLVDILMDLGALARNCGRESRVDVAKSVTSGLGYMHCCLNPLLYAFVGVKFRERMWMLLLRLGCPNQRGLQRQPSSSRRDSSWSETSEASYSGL
In short: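 Agonist activity was measured as suppression of forskolin (20 μM)-induced cAMP, read by luminescent enzyme-fragment complementation with a cAMP standard curve and CXCL11 defining full efficacy. Assay used 50,000 CXCR3 Gi CHOK1 cells/well in pH 7.4 HEPES-buffered HBSS with 0.1% BSA, compound 0-10 μM over 12 points, 30 min incubation.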

Row | SMILES | apparent oral clearance (CL/F) ([1]; C57BL/6, 60 mg/kg, female mice) [mL/min/kg] | Cmax ([1]; C57BL/6, 60 mg/kg, female mice) [µM] | AUC(0-t) ([1]; C57BL/6, 60 mg/kg, female mice) [µM·h] | pEC50 (CXCR3) | apparent oral clearance (CL/F) ([1]; C57BL/6, 10 mg/kg, male mice) [mL/min/kg] | Cmax ([1]; C57BL/6, 10 mg/kg, male mice) [µM] | AUC(0-t) ([1]; C57BL/6, 10 mg/kg, male mice) [µM·h] | AUC0-24 ([1]; C57BL/6, 60 mg/kg, female mice)
1 | Cc1cc(NC(=O)[C@H](CCN)NC(=O)[C@@H]2Cc3ccccc3CN2C(=O)CCC(=O)c2ccccc2)c(OC(F)(F)F)cc1C [Compound 14-28] | 47 | 5.2 | 33.8 | > 7.30 |  |  |  | 
2 | Cc1cccc(NC(=O)[C@H](CCN)NC(=O)[C@@H]2Cc3ccccc3CN2C(=O)CCC(=O)c2ccccc2)c1C [Compound 2-49] | 131 | 7.1 | 14.1 | > 7.30 |  |  |  | 
3 | Cc1cc(NC(=O)C2(NC(=O)[C@@H]3Cc4ccccc4CN3C(=O)CCC(=O)c3ccccc3)CCN(C)CC2)ccc1Cl [Compound 6-4] |  |  |  | 6.60 to 7.30 | 33 | 0.81 | 8.3 | 
4 | CN1CCN(C(=O)CCC(=O)N2Cc3ccccc3C[C@H]2C(=O)NC2(C(=O)Nc3ccc(Cl)c(Cl)c3F)CCNCC2)CC1 [Compound 12-138] | 851 | 0.5 | 1.8 | > 7.30 |  |  |  | 
5 | Cc1cc(NC(=O)[C@H](CCN)NC(=O)[C@@H]2Cc3ccccc3CN2C(=O)CCC(=O)N2CCN(C)C[C@H]2C)ccc1Cl [Compound 12-100] |  | 0.37 |  | > 7.30 |  |  |  | BQL
6 | Cc1cc(NC(=O)C2(NC(=O)[C@@H]3Cc4ccccc4CN3C(=O)CCC(=O)c3ccccc3)CCNCC2)ccc1Cl [Compound 4-12] |  |  |  | 6.60 to 7.30 | 32 | 3.3 | 9 | 
7 | Cc1cc(NC(=O)[C@H](CCN)NC(=O)[C@@H]2Cc3ccccc3CN2C(=O)CCC(=O)N2CCCC(C)(C)C2)cc(C)c1Cl [Compound 10-9] | 132 | 4.3 | 12.4 | > 7.30 |  |  |  | 

Further lines, results first:

Row | apparent oral clearance (CL/F) ([1]; C57BL/6, 60 mg/kg, female mice) [mL/min/kg] | Cmax ([1]; C57BL/6, 60 mg/kg, female mice) [µM] | AUC(0-t) ([1]; C57BL/6, 60 mg/kg, female mice) [µM·h] | pEC50 (CXCR3) | apparent oral clearance (CL/F) ([1]; C57BL/6, 10 mg/kg, male mice) [mL/min/kg] | Cmax ([1]; C57BL/6, 10 mg/kg, male mice) [µM] | AUC(0-t) ([1]; C57BL/6, 10 mg/kg, male mice) [µM·h] | AUC0-24 ([1]; C57BL/6, 60 mg/kg, female mice) | SMILES
8 | 143 | 5.1 | 11.7 | > 7.30 |  |  |  |  | Cc1c(Cl)cc(NC(=O)[C@H](CCN)NC(=O)[C@@H]2Cc3ccccc3CN2C(=O)CCC(=O)c2ccccc2)cc1Cl [Compound 27-3]
9 | 666 | 0.6 | 2.4 | > 7.30 |  |  |  |  | CC1(C)CCCCN1C(=O)CCC(=O)N1Cc2ccccc2C[C@H]1C(=O)N[C@@H](CCN)C(=O)Nc1ccc(Cl)c(Cl)c1F [Compound 15-3]
10 | 98 | 6.7 | 16.3 | > 7.30 |  |  |  |  | Cc1c(Cl)ccc(NC(=O)[C@H](CCN)NC(=O)[C@@H]2Cc3ccccc3CN2C(=O)CCC(=O)N2CCCC23CCC3)c1Cl [Compound 15-48]
11 | 90 | 5.7 | 17.6 | > 7.30 |  |  |  |  | CC1(C)CCCN(C(=O)CCC(=O)N2Cc3ccccc3C[C@H]2C(=O)N[C@@H](CCN)C(=O)Nc2ccc(Cl)c(Cl)c2F)C1 [Compound 15-6]
12 | 92 | 4.3 | 17.6 | > 7.30 |  |  |  |  | NCC[C@H](NC(=O)[C@@H]1Cc2ccc(F)cc2CN1C(=O)CCC(=O)c1ccccc1)C(=O)Nc1ccc(Cl)c(Cl)c1F [Compound 27-7]
13 | 565 | 1.2 | 2.9 | > 7.30 |  |  |  |  | Cc1cc(NC(=O)[C@H](CCN)NC(=O)[C@@H]2Cc3ccccc3CN2C(=O)CCC(=O)N2CCCCC2(C)C)c(C#N)cc1Cl [Compound 18-1, (S)—N—((S)-4-amino-1-((4-chloro-2-cyano-5-methylphenyl)amino)-1-oxobutan-2-yl)-2-(4-(2,2-dimethylpiperidin-1-yl)-4-oxobutanoyl)-1,2,3,4-tetrahydroisoquinoline-3-carboxamide]
